Patent US20100239523A1 (priority 2007, published 2010)

Key:
[1] = target: T1, human TLR4 (Homo sapiens, UniProt O00206); assay type: cell-based
T1 construct: host or cells: HEK 293

[2] = tested on: morphine analgesia in rats; assay: Potentiation of intrathecal morphine analgesia, Hargreaves test; assay type: in vivo, rat; conditions: about 20 μg co-administered with morphine intrathecally, FIG. 6B

T1 sequence (O00206 24-839): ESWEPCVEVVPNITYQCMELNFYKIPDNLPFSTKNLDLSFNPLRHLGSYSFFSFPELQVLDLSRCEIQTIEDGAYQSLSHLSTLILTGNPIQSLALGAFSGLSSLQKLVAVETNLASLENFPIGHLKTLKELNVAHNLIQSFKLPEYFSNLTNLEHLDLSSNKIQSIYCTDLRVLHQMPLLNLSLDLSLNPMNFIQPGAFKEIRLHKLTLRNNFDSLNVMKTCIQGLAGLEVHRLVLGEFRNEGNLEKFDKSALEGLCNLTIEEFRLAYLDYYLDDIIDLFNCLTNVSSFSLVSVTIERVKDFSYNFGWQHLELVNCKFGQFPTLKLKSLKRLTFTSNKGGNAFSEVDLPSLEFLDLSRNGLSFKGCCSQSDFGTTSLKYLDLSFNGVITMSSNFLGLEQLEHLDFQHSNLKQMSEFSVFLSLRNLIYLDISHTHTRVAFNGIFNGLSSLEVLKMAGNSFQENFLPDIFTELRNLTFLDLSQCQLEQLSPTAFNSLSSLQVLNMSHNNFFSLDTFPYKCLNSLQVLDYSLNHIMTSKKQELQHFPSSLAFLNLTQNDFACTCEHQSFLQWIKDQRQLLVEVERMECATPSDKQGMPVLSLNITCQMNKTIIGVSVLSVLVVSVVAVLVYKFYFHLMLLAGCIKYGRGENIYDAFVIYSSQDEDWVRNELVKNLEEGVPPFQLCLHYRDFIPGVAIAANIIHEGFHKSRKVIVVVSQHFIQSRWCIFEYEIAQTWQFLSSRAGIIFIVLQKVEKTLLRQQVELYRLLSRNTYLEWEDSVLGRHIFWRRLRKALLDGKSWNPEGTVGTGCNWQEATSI
T1 sequence (Q9Y6Y9 17-160 partner limits assumed): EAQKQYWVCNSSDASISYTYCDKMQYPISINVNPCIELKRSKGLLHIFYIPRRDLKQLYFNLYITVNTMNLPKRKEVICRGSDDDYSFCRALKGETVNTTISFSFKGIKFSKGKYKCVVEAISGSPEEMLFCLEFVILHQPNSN

Compound | TLR4 agonism [1] | potentiation of morphine analgesia [2]
CCC(=O)C(CC(C)N(C)C)(c1ccccc1)c1ccccc1 (centres unmarked) [methadone] | TLR4 agonists | –
CN1CC[C@]23c4c5ccc(O)c4O[C@H]2[C@@H](O)C=C[C@H]3[C@H]1C5 [morphine] | TLR4 agonists | –
COc1ccc2c3c1O[C@H]1C(=O)CC[C@@]4(O)[C@@H](C2)N(C)CC[C@]314 [oxycodone] | TLR4 agonists | –
CCOC(=O)C1(c2ccccc2)CCN(C)CC1 [pethadine/meperidine] | TLR4 agonists | –
O=c1c(O)c(-c2ccc(O)c(O)c2)oc2cc(O)cc(O)c12 [quercetin] | – | significant potentiation
